A value given as a limit tells only on which side of the number the result lay.

IC50 and melting point data for 26 compounds are collected here from patent US7273877B2, “5-substituted-4-[(substituted phenyl) amino]-2-pyridone derivatives” (Warner-Lambert Company, LLC, priority 2003, dated 2007).

Series [1] concerns phosphorylation of MAP kinase (ERK) in murine colon 26 (C26) carcinoma cells. Briefly: Cellular inhibition of ERK phosphorylation, C26ELSA (pERK ELISA format). The note with it: Mus musculus, 1 h, C26 cells treated with test compound for one hour at 37° C. The class given is cell-based. The procedure:
(§1) MEK inhibitors were evaluated by determining their ability to inhibit phosphorylation of MAP kinase (ERK) in murine colon 26 (C26) carcinoma cells. Since ERK1 and ERK2 represent the only known substrates for MEK1and MEK2, the measurement of inhibition of ERK phosphorylation in cells provides direct read out of cellular MEK inhibition by the compounds of the invention. Detection of phosphorylation of ERK was carried out either by Western blot or ELISA format. Briefly, the assays involve treatment of exponentially growing C26 cells with varying concentrations of the test compound (or vehicle control) for one hour at 37° C. For Western blot assay, cells were rinsed free of compound/vehicle and lysed in a solution containing 70 mM NaCl, 50 mM glycerol phosphate, 10 mM HEPES, pH 7.4, 1% Triton X-100, 1 mM Na3VO4, 100 μM PMSF, 10 μM leupeptin and 10 μM pepstatin. Supernatants were then subjected to gel electrophoresis and hybridized to a primary antibody recognizing dually phosphorylated ERK1 and ERK2. To evaluate total MAPK levels, blots were subsequently ‘stripped’ and re-probed with a 1:1 mixture of polyclonal antibodies recognizing unphosphorylated ERK1 and ERK2. For pERK ELISA assay, pERK TiterZyme Enzyme immunometric Assay kits were acquired from Assay Designs, Inc (Ann Arbor, Mich.). Briefly, cells were harvested in lysis solution containing 50 mM β-glycerophosphate, 10 mM HEPES, ph7.4, 70 mM NaCl, 2 mM EDTA and 1% SDS and protein lysates were diluted 1:15 with supplied Assay buffer prior to the execution of the assay. The subsequent steps were carried out essentially as recommended by the manufacturer.
(§2) The inhibition data generated by the above protocols is disclosed in Table I. If several concentrations of inhibitor were tested, IC50 values (the concentration which gives 50% inhibition) were determined graphically from the dose response curve for % inhibition. Otherwise, percent inhibitions at measured concentrations are reported.

Series [2] has the same test system. Briefly: Cellular inhibition of ERK phosphorylation, C26CPA1. The class given is cell-based. The note with it: Mus musculus, 1 h; C26 cells treated with test compound for one hour at 37° C. On the procedure:
as §1, §2

In turn, `Cn1cc(C(=O)NCCCO)c(Nc2ccc(CCCO)cc2F)cc1=O` [Example 9, 4-[2-Fluoro-4-(3-hydroxypropyl)anilino]-N-(3-hydroxypropyl)-1-methyl-6-oxo-1,6-dihydro-3-pyridinecarboxamide] came in with a melting point of 161 to 164 °C. In series [1], this compound had a 50% inhibitory concentration (IC50) not below 5000 nM.
On the same counts, the results for `O=C(NCCO)c1c[nH]c(=O)cc1Nc1ccc(I)cc1F` [Example 11, 4-(2-Fluoro-4-iodoanilino)-N-(2-hydroxyethyl)-6-oxo-1,6-dihydro-3-pyridinecarboxamide] are 254 to 256 °C and not below 5000 nM.
Regarding `CSc1ccc(Nc2cc(=O)n(C)cc2-c2nnc(NC(CO)CO)o2)c(F)c1` [Example 91, 4-(2-Fluoro-4-methylsulfanyl-phenylamino)-5-[5-(2-hydroxy-1-hydroxymethyl-ethylamino)-[1,3,4]oxadiazol-2-yl]-1-methyl-1H-pyridin-2-one], in series [1], the IC50 is more than 1000 nM.
As for `NC(=O)c1cn(CC(O)CO)c(=O)cc1Nc1ccc(I)cc1F` (centres unmarked) [Example 31, 1-(2,3-Dihydroxypropyl)-4-(2-fluoro-4-iodoanilino)-6-oxo-1,6-dihydro-3-pyridinecarboxamide], the melting point was 210 to 213 °C. The compound also gave a concentration for half-maximal inhibition (IC50) in series [2] of 1410 nM.
As to `Cn1cc(C(N)=O)c(Nc2ccc(I)cc2F)cc1=O` [Example 10, 4-(2-Fluoro-4-iodoanilino)-1-methyl-6-oxo-1,6-dihydro-3-pyridinecarboxamide], in series [1], the IC50 is 4.4 nM.
For `O=C(O)Cn1cc(C(=O)NCCCO)c(Nc2ccc(I)cc2F)cc1=O` [Example 24, (4-(2-Fluoro-4-iodoanilino)-5-{[(3-hydroxypropyl)amino]carbonyl}-2-oxo-1(2H)-pyridinyl)acetic acid], the melting point was 199 to 202 °C. In series [1], the IC50 was not below 5000 nM.
`Cn1cc(C(=O)NOCCO)c(Nc2ccc(I)cc2F)cc1=O` [Example 1, 4-(2-Fluoro-4-iodoanilino)-N-(2-hydroxyethoxy)-1-methyl-6-oxo-1,6-dihydro-3-pyridinecarboxamide] registered a melting point of 148 to 151 °C. In series [1], this compound yielded a half-inhibitory concentration (IC50) of 4.9 nM. In addition, half-maximal inhibition in series [2] (IC50) was put at 43.8 nM.
Regarding `CCOC(=O)c1cn(C)c(=O)cc1Nc1ccc2c(c1)CCC2` [Example 58, 4-(Indan-5-ylamino)-1-methyl-6-oxo-1,6-dihydro-pyridine-3-carboxylic acid ethyl ester], the melting point was 141 to 143 °C. Further, in series [1], the IC50 is 3900 nM.
`CSc1ccc(Nc2cc(=O)n(C)cc2-c2nnc(NCCO)o2)c(F)c1` [Example 90, 4-(2-Fluoro-4-methylsulfanyl-phenylamino)-5-[5-(2-hydroxy-ethylamino)[1,3,4]oxadiazol-2-yl]-1-methyl-1H-pyridin-2-one]: in series [1], the half-inhibitory concentration (IC50) is more than 5000 nM.
As to `C=CCn1cc(C(N)=O)c(Nc2ccc(I)cc2F)cc1=O` [Example 30, 1-Allyl-4-(2-fluoro-4-iodoanilino)-6-oxo-1,6-dihydro-3-pyridinecarboxamide], the melting point was in the range of 215 to 217 °C. Further, the IC50 in series [1] worked out at 430 nM.
As for `CSc1ccc(Nc2cc(=O)n(C)cc2-c2nnc(NCC(O)CO)o2)c(F)c1` (centres unmarked) [Example 92, 5-[5-(2,3-dihydroxy-propylamino)-[1,3,4]oxadiazol-2-yl]-4-(2-fluoro-4-methylsulfanyl-phenylamino)-1-methyl-1H-pyridine-2-one], half-maximal inhibition in series [1] (IC50) was put at 1240 nM. This counts as single-digit micromolar.
Compound `O=C(NCCCO)c1c[nH]c(=O)cc1Nc1ccc(I)cc1F` [Example 14, 4-(2-Fluoro-4-iodoanilino)-N-(3-hydroxypropyl)-6-oxo-1,6-dihydro-3-pyridinecarboxamide] yielded a melting point of 253 to 255 °C. In series [1], this compound displayed a concentration for half-maximal inhibition (IC50) not below 5000 nM.
On the same counts, the results for `CCOC(=O)c1cn(C)c(=O)cc1Nc1ccc(C)c(C)c1` [Example 57, 4-(3,4-Dimethyl-phenylamino)-1-methyl-6-oxo-1,6-dihydro-pyridine-3-carboxylic acid ethyl ester] are 153 to 154 °C and not below 5000 nM.
Compound `C#Cc1ccc(Nc2cc(=O)n(C)cc2C(N)=O)c(F)c1` [Example 17, 4-(4-Ethynyl-2-fluoroanilino)-1-methyl-6-oxo-1,6-dihydro-3-pyridinecarboxamide] came in with a melting point of 269 to 272 °C. In addition, half-maximal inhibition in series [1] (IC50) required 21 nM.
On the same counts, the results for `Cn1cc(C(N)=O)c(Nc2ccc(CCCO)cc2F)cc1=O` [Example 21, 4-[2-Fluoro-4-(3-hydroxypropyl)anilino}-1-methyl-6-oxo-1,6-dihydro-3-pyridinecarboxamide] are 214 to 216 °C and 630 nM.
As to `Cn1cc(C(=O)NCCO)c(Nc2ccc(CCCO)cc2F)cc1=O` [Example 7, 4-[2-Fluoro-4-(3-hydroxypropyl)anilino]-N-(2-hydroxyethyl)-1-methyl-6-oxo-1,6-dihydro-3-pyridinecarboxamide], the melting point lay within 177 to 179 °C. In series [1], the half-maximal inhibitory concentration (IC50) was not below 5000 nM.
On the same counts, the results for `Cn1cc(C(=O)OCC(N)(CO)CO)c(Nc2ccc(I)cc2F)cc1=O` [Example 48, 2-Amino-3-hydroxy-2-(hydroxymethyl)propyl-4-(2-fluoro-4-iodoanilino)-1-methyl-6-oxo-1,6-dihydro-3-pyridinecarboxylate] are 117 to 122 °C and not below 5000 nM.
On to `Cn1cc(C(=O)NC(CO)(CO)CO)c(Nc2ccc(I)cc2F)cc1=O` [Example 47, 4-(2-Fluoro-4-iodoanilino)-N-[2-hydroxy-1,1-bis(hydroxymethyl)ethyl]-1-methyl-6-oxo-1,6-dihydro-3-pyridinecarboxamide], for which the melting point fell in the range of 100 to 105 °C. The half-maximal inhibitory concentration (IC50) in series [1] is not below 5000 nM.
Turning to `CNC(=O)c1cn(C)c(=O)cc1Nc1ccc(I)cc1F` [Example 51, 4-(2-Fluoro-4-iodoanilino)-N,1-dimethyl-6-oxo-1,6-dihydro-3-pyridinecarboxamide], the melting point was in the range of 252 to 254 °C. Also, the concentration for half-maximal inhibition (IC50) in series [1] is not below 5000 nM.
On the same counts, the results for `NC(=O)c1c[nH]c(=O)cc1Nc1ccc(I)cc1F` [Example 19, 4-(2-Fluoro-4-iodoanilino)-6-oxo-1,6-dihydro-3-pyridinecarboxamide] are 320 to 325 °C and 110 nM.
On to `Cn1cc(C(=O)NCCCO)c(Nc2ccc(I)cc2F)cc1=O` [Example 5, 4-(2-Fluoro-4-iodoanilino)-N-(3-hydroxypropyl)-1-methyl-6-oxo-1,6-dihydro-3-pyridinecarboxamide], for which the melting point was 81 to 86 °C. Further, in series [2], the midpoint of inhibition, the IC50, lay at 60 nM.
With `Cn1cc(C(=O)NCCCO)c(Nc2ccc3ccccc3c2)cc1=O` [Example 42, N-(3-Hydroxypropyl)-1-methyl-4-(2-naphthylamino)-6-oxo-1,6-dihydro-3-pyridinecarboxamide], the melting point was 78 to 83 °C. Also, in series [1], the IC50 was found to be 93 nM.
In turn, `Cn1cc(C(N)=O)c(Nc2ccc(Cl)c(Cl)c2Cl)cc1=O` [Example 67, 1-Methyl-6-oxo-4-(2,3,4-trichloro-phenylamino)-1,6-dihydro-pyridine-3-carboxylic acid amide] gave an IC50 in series [2] of 76 nM.
On the same count and under the same terms, to `CSc1ccc(Nc2cc(=O)n(C)cc2C(=O)NC(CO)CO)c(F)c1` [Example 89, 4-(2-Fluoro-4-methylsulfoanyl-phenylamino)-1-methyl-6-oxo-1,6, dihydro-pyridine-3-carboxylic acid (2-hydroxy-1-hydroxymethyl-ethyl)-amide] belongs 2820 nM.
With `Cc1ccc(Nc2cc(=O)n(C)cc2C(N)=O)c(F)c1` [Example 37, 4-(2-Fluoro-4-methylanilino)-1-methyl-6-oxo-1,6-dihydro-3-pyridinecarboxamide], the melting point was in the range of 285 to 288 °C. In series [1], this compound showed a concentration for half-maximal inhibition (IC50) not below 5000 nM.
On the same counts, the results for `Cn1cc(C(N)=O)c(Nc2ccc(Br)cc2F)cc1=O` [Example 40, 4-(4-Bromo-2-fluoroanilino)-1-methyl-6-oxo-1,6-dihydro-3-pyridinecarboxamide] are 282 to 284 °C and 120 nM.

One may read the IC50 as the point on the concentration scale where inhibition reaches its midpoint. A higher IC50 goes with lower potency. In general, melting point refers to the temperature of the solid-liquid transition.
